Like-named read-outs stand apart in the source and are kept apart here. Each block holds one compound with its values, some of them ahead of it. Numbered stars: 1 amine (or outer) side, 2 acyl side, 3 side chain; on linkers, the order of the positions; unused ones are H or OH. Square brackets hold non-standard residues; d marks the D form. Side chains are listed from the residue outwards. Peptide text beside a SMILES is read from it. * marks the point of attachment. C18 diacid = O=C(O)CCCCCCCCCCCCCCCCC(=O)*; γGlu = O=C(O)[C@H](CCC(=O)[*:2])N[*:1]; dNva = CCC[C@@H](N)C(=O)O; AEEA = NCCOCCOCC(=O)O
Columns and labels:
[1] = target: human GLP-1R (Homo sapiens, UniProt P43220); test: cAMP signal analysis of GLP-1R (GLP-1 receptor agonist activity); assay type: cell-based
Protocol: A wild human GLP-1R (NM_002062.5) was subjected to transient transfection and screened for two weeks by 600 μg/ml of hygromycin-B to obtain a cell line which was recombined and integrated into an FlpInCHO (Invitrogen) cell stable expression system. The culture condition of the FlpInCHO cell was as follows: 10% of heat-inactivated fetal calf serum was added to a DMEM culture solution, and the culture was performed in a 5% carbon dioxide cell incubator.
In the test, an LANCE cAMP detection kit was used for measuring the cAMP signal intensity.

[2] = Pharmacokinetic comparison experiment in rats, single subcutaneous injection; settings: rat, in vivo, sc, 0.02 mg/kg
Protocol: A single subcutaneous injection was performed with a dose of 0.02 mg/kg; blood collection was performed by tail clipping, and the blood collection time points were: 0 h, 15 min, 30 min, 1 h, 2 h, 3 h, 4 h, 6 h, 8 h, 24 h, 48 h and 72 h. The compound concentration in plasma was determined by LC-MS/MS, all data were collected and exported by Unifi 1.9.3 software, and Excel software was used for data calculation. A non-compartmental model of DAS 3.0 software was used to calculate the pharmacokinetic parameters of rats after administration.

[3] = CHO cell line stably expressing human GLP-1R, downstream cAMP signal, LANCE cAMP kit, read-out: GLP-1R EC50

Sequence of human GLP-1R (P43220 24-463): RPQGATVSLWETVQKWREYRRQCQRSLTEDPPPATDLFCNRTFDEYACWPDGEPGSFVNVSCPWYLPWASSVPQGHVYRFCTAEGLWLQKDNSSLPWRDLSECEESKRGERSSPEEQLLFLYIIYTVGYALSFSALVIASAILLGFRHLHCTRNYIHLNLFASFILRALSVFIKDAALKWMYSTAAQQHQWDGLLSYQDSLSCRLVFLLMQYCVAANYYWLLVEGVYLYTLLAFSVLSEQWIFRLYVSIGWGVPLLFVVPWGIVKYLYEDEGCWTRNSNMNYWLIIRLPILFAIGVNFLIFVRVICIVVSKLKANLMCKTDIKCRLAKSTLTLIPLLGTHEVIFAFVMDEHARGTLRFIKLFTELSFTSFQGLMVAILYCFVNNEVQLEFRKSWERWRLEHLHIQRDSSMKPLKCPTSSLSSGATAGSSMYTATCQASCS

EC50 [1, 3]: 2.84 ± 0.513 nM | CL/F ([2]; male): 0.133 mL/min/kg | half-life ([2]; male): 923 min | AUC(0-inf) [2]: 2810 ng·h/mL | AUC(0-t) [2]: 2630 ng·h/mL | AUMC(0-t), Mean [2]: 73156.82 h * h * μg/L | AUMC(0-∞), Mean [2]: 89827.62 h * h * μg/L | Cmax [2]: 66.8 ng/mL | R_AUC(t/∞), Mean [2]: 93.53% | Tmax [2]: 24 h | Vd/F [2]: 0.17 L/kg
SMILES: CC[C@H](C)[C@H](NC(=O)[C@H](Cc1ccccc1)NC(=O)[C@H](CCC(=O)O)NC(=O)[C@H](CCCCNC(=O)COCCOCCNC(=O)COCCOCCNC(=O)CC[C@H](NC(=O)CCCCCCCCCCCCCCCCC(=O)O)C(=O)O)NC(=O)[C@H](C)NC(=O)[C@H](C)NC(=O)[C@H](CCC(N)=O)NC(=O)[C@](C)(CC)NC(=O)[C@H](CCC(=O)O)NC(=O)[C@H](CC(C)C)NC(=O)[C@H](Cc1ccc(O)cc1)NC(=O)[C@H](CO)NC(=O)[C@H](CO)NC(=O)[C@@H](NC(=O)[C@H](CC(=O)O)NC(=O)[C@H](CO)NC(=O)[C@@H](NC(=O)[C@H](Cc1ccccc1)NC(=O)[C@@H](NC(=O)CNC(=O)[C@H](CCC(=O)O)NC(=O)[C@](C)(CC)NC(=O)[C@@H](N)Cc1c[nH]cn1)[C@@H](C)O)[C@@H](C)O)C(C)C)C(=O)N[C@@H](C)C(=O)N[C@@H](Cc1c[nH]c2ccccc12)C(=O)N[C@@H](CC(C)C)C(=O)N[C@H](C(=O)N[C@@H](CCCNC(=N)N)C(=O)NCC(=O)N[C@@H](CCCNC(=N)N)C(=O)NCC(=O)O)C(C)C [NO: 3]

EC50 [1, 3]: 2.9 ± 0.39 nM
SMILES: CCC[C@@H](NC(=O)[C@H](CCC(=O)O)NC(=O)[C@H](CC(C)C)NC(=O)[C@H](Cc1ccc(O)cc1)NC(=O)[C@H](CO)NC(=O)[C@H](CO)NC(=O)[C@@H](NC(=O)[C@H](CC(=O)O)NC(=O)[C@H](CO)NC(=O)[C@@H](NC(=O)[C@H](Cc1ccccc1)NC(=O)[C@@H](NC(=O)CNC(=O)[C@H](CCC(=O)O)NC(=O)[C@@H](CCC)NC(=O)[C@@H](N)Cc1c[nH]cn1)[C@@H](C)O)[C@@H](C)O)C(C)C)C(=O)N[C@@H](CCC(N)=O)C(=O)N[C@@H](C)C(=O)N[C@@H](C)C(=O)N[C@@H](CCCCNC(=O)COCCOCCNC(=O)COCCOCCNC(=O)CC[C@H](NC(=O)CCCCCCCCCCCCCCCCC(=O)O)C(=O)O)C(=O)N[C@@H](CCC(=O)O)C(=O)N[C@@H](Cc1ccccc1)C(=O)N[C@H](C(=O)N[C@@H](C)C(=O)N[C@@H](Cc1c[nH]c2ccccc12)C(=O)N[C@@H](CC(C)C)C(=O)N[C@H](C(=O)N[C@@H](CCCNC(=N)N)C(=O)NCC(=O)N[C@@H](CCCNC(=N)N)C(=O)NCC(=O)O)C(C)C)[C@@H](C)CC [NO: 15] (H-H[dNva]EGTFTSDVSSYLE[dNva]QAAK([AEEA-AEEA-γGlu-C18 diacid])EFIAWLVRGRG-OH)

SMILES: CC[C@H](C)[C@H](NC(=O)[C@H](Cc1ccccc1)NC(=O)[C@H](CCC(=O)O)NC(=O)[C@H](CCCCNC(=O)COCCOCCNC(=O)COCCOCCNC(=O)CC[C@H](NC(=O)CCCCCCCCCCCCCCCCC(=O)O)C(=O)O)NC(=O)[C@H](C)NC(=O)[C@H](C)NC(=O)[C@H](CCC(N)=O)NC(=O)[C@@H]1CCCN1C(=O)[C@H](CCC(=O)O)NC(=O)[C@H](CC(C)C)NC(=O)[C@H](Cc1ccc(O)cc1)NC(=O)[C@H](CO)NC(=O)[C@H](CO)NC(=O)[C@@H](NC(=O)[C@H](CC(=O)O)NC(=O)[C@H](CO)NC(=O)[C@@H](NC(=O)[C@H](Cc1ccccc1)NC(=O)[C@@H](NC(=O)CNC(=O)[C@H](CCC(=O)O)NC(=O)[C@@H]1CCCN1C(=O)[C@@H](N)Cc1c[nH]cn1)[C@@H](C)O)[C@@H](C)O)C(C)C)C(=O)N[C@@H](C)C(=O)N[C@@H](Cc1c[nH]c2ccccc12)C(=O)N[C@@H](CC(C)C)C(=O)N[C@H](C(=O)N[C@@H](CCCNC(=N)N)C(=O)NCC(=O)N[C@@H](CCCNC(=N)N)C(=O)NCC(=O)O)C(C)C [NO: 17]
EC50 [1]: 3.32 ± 0.677 nM

SMILES: CC[C@H](C)[C@H](NC(=O)[C@H](Cc1ccccc1)NC(=O)[C@H](CCC(=O)O)NC(=O)[C@H](CCCCNC(=O)COCCOCCNC(=O)COCCOCCNC(=O)CC[C@H](NC(=O)CCCCCCCCCCCCCCCCC(=O)O)C(=O)O)NC(=O)[C@H](C)NC(=O)[C@H](C)NC(=O)[C@H](CCC(N)=O)NC(=O)CNC(=O)[C@H](CCC(=O)O)NC(=O)[C@H](CC(C)C)NC(=O)[C@H](Cc1ccc(O)cc1)NC(=O)[C@H](CO)NC(=O)[C@H](CO)NC(=O)[C@@H](NC(=O)[C@H](CC(=O)O)NC(=O)[C@H](CO)NC(=O)[C@@H](NC(=O)[C@H](Cc1ccccc1)NC(=O)[C@@H](NC(=O)CNC(=O)[C@H](CCC(=O)O)NC(=O)[C@@H]1CCCN1C(=O)[C@@H](N)Cc1c[nH]cn1)[C@@H](C)O)[C@@H](C)O)C(C)C)C(=O)N[C@@H](C)C(=O)N[C@@H](Cc1c[nH]c2ccccc12)C(=O)N[C@@H](CC(C)C)C(=O)N[C@H](C(=O)N[C@@H](CCCNC(=N)N)C(=O)NCC(=O)N[C@@H](CCCNC(=N)N)C(=O)NCC(=O)O)C(C)C [NO: 18]
EC50 [1]: 3.12 ± 0.512 nM

SMILES: CC[C@H](C)[C@H](NC(=O)[C@H](Cc1ccccc1)NC(=O)[C@H](CCC(=O)O)NC(=O)[C@H](CCCCNC(=O)COCCOCCNC(=O)COCCOCCNC(=O)CC[C@H](NC(=O)CCCCCCCCCCCCCCCCC(=O)O)C(=O)O)NC(=O)[C@H](C)NC(=O)[C@H](C)NC(=O)[C@H](CCC(N)=O)NC(=O)[C@@](C)(CC(F)(F)F)NC(=O)[C@H](CCC(=O)O)NC(=O)[C@H](CC(C)C)NC(=O)[C@H](Cc1ccc(O)cc1)NC(=O)[C@H](CO)NC(=O)[C@H](CO)NC(=O)[C@@H](NC(=O)[C@H](CC(=O)O)NC(=O)[C@H](CO)NC(=O)[C@@H](NC(=O)[C@H](Cc1ccccc1)NC(=O)[C@@H](NC(=O)CNC(=O)[C@H](CCC(=O)O)NC(=O)[C@@](C)(CC(F)(F)F)NC(=O)[C@@H](N)Cc1c[nH]cn1)[C@@H](C)O)[C@@H](C)O)C(C)C)C(=O)N[C@@H](C)C(=O)N[C@@H](Cc1c[nH]c2ccccc12)C(=O)N[C@@H](CC(C)C)C(=O)N[C@H](C(=O)N[C@@H](CCCNC(=N)N)C(=O)NCC(=O)N[C@@H](CCCNC(=N)N)C(=O)NCC(=O)O)C(C)C [NO: 19]
EC50 [1]: 0.791 ± 0.0635 nM

SMILES: CC[C@H](C)[C@H](NC(=O)[C@H](Cc1ccccc1)NC(=O)[C@H](CCC(=O)O)NC(=O)[C@H](CCCCNC(=O)COCCOCCNC(=O)COCCOCCNC(=O)CC[C@H](NC(=O)CCCCCCCCCCCCCCCCC(=O)O)C(=O)O)NC(=O)[C@H](C)NC(=O)[C@H](C)NC(=O)[C@H](CCC(N)=O)NC(=O)CNC(=O)[C@H](CCC(=O)O)NC(=O)[C@H](CC(C)C)NC(=O)[C@H](Cc1ccc(O)cc1)NC(=O)[C@H](CO)NC(=O)[C@H](CO)NC(=O)[C@@H](NC(=O)[C@H](CC(=O)O)NC(=O)[C@H](CO)NC(=O)[C@@H](NC(=O)[C@H](Cc1ccccc1)NC(=O)[C@@H](NC(=O)CNC(=O)[C@H](CCC(=O)O)NC(=O)[C@@](C)(CC(F)(F)F)NC(=O)[C@@H](N)Cc1c[nH]cn1)[C@@H](C)O)[C@@H](C)O)C(C)C)C(=O)N[C@@H](C)C(=O)N[C@@H](Cc1c[nH]c2ccccc12)C(=O)N[C@@H](CC(C)C)C(=O)N[C@H](C(=O)N[C@@H](CCCNC(=N)N)C(=O)NCC(=O)N[C@@H](CCCNC(=N)N)C(=O)NCC(=O)O)C(C)C [NO: 20]
EC50 [1]: 0.693 ± 0.0557 nM

SMILES: CC[C@H](C)[C@H](NC(=O)[C@H](Cc1ccccc1)NC(=O)[C@H](CCC(=O)O)NC(=O)[C@H](CCCCNC(=O)COCCOCCNC(=O)COCCOCCNC(=O)CC[C@H](NC(=O)CCCCCCCCCCCCCCCCC(=O)O)C(=O)O)NC(=O)[C@H](C)NC(=O)[C@H](C)NC(=O)[C@H](CCC(N)=O)NC(=O)[C@](C)(NC(=O)[C@H](CCC(=O)O)NC(=O)[C@H](CC(C)C)NC(=O)[C@H](Cc1ccc(O)cc1)NC(=O)[C@H](CO)NC(=O)[C@H](CO)NC(=O)[C@@H](NC(=O)[C@H](CC(=O)O)NC(=O)[C@H](CO)NC(=O)[C@@H](NC(=O)[C@H](Cc1ccccc1)NC(=O)[C@@H](NC(=O)CNC(=O)[C@H](CCC(=O)O)NC(=O)[C@](C)(NC(=O)[C@@H](N)Cc1c[nH]cn1)C(F)(F)C(F)(F)F)[C@@H](C)O)[C@@H](C)O)C(C)C)C(F)(F)C(F)(F)F)C(=O)N[C@@H](C)C(=O)N[C@@H](Cc1c[nH]c2ccccc12)C(=O)N[C@@H](CC(C)C)C(=O)N[C@H](C(=O)N[C@@H](CCCNC(=N)N)C(=O)NCC(=O)N[C@@H](CCCNC(=N)N)C(=O)NCC(=O)O)C(C)C [NO: 21]
EC50 [1]: 0.652 ± 0.0417 nM

SMILES: CC[C@H](C)[C@H](NC(=O)[C@H](Cc1ccccc1)NC(=O)[C@H](CCC(=O)O)NC(=O)[C@H](CCCCNC(=O)COCCOCCNC(=O)COCCOCCNC(=O)CC[C@H](NC(=O)CCCCCCCCCCCCCCCCC(=O)O)C(=O)O)NC(=O)[C@H](C)NC(=O)[C@H](C)NC(=O)[C@H](CCC(N)=O)NC(=O)CNC(=O)[C@H](CCC(=O)O)NC(=O)[C@H](CC(C)C)NC(=O)[C@H](Cc1ccc(O)cc1)NC(=O)[C@H](CO)NC(=O)[C@H](CO)NC(=O)[C@@H](NC(=O)[C@H](CC(=O)O)NC(=O)[C@H](CO)NC(=O)[C@@H](NC(=O)[C@H](Cc1ccccc1)NC(=O)[C@@H](NC(=O)CNC(=O)[C@H](CCC(=O)O)NC(=O)[C@](C)(NC(=O)[C@@H](N)Cc1c[nH]cn1)C(F)(F)C(F)(F)F)[C@@H](C)O)[C@@H](C)O)C(C)C)C(=O)N[C@@H](C)C(=O)N[C@@H](Cc1c[nH]c2ccccc12)C(=O)N[C@@H](CC(C)C)C(=O)N[C@H](C(=O)N[C@@H](CCCNC(=N)N)C(=O)NCC(=O)N[C@@H](CCCNC(=N)N)C(=O)NCC(=O)O)C(C)C [NO: 22]
EC50 [1]: 0.63 ± 0.0519 nM

Reference: US12590134B2, “GLP-1 agonist polypeptide compound and salt thereof, synthesis method therefor and use thereof” (Sinopep-Allsino Biopharmaceutical Co., Ltd., priority 2020, dated 2026)
